Where two headings read alike, the source gives them in different places.
Experiments:
[1] = test system: target receptor (site of specific interaction of BN83250) (Homo sapiens); experiment: Competition for specific binding of [3H]-BN83250 to human myelomonocytic cell line; conditions: competition binding curve, non-linear modelling
Protocol: The general pharmacology of the five compounds was assessed, both against the specific target receptor, and against a wide variety of other receptors, many related in structure to the target receptor. Specific binding to the target receptor was assessed by competition for the binding of [^3H]-BN83250 (BN83250 is (S)-3-(2′,2′-dimethyldodecanoylamino)-caprolactam; Fox et al. J Med Chem. […]; 48(3):867-74; an agent known to bind to the same target receptor as the lactam BSCIs disclosed here). Binding to non-target receptors was assessed by competition for the binding of various specific radioligands for other receptors which are well known in the art.
For specific binding the human myelomonocytic cell line was resuspended in binding buffer (20 mM HEPES, 150 mM NaCl, pH 7.4; 10^6 cells per reaction) at 4° C. in the presence of 10 nM [^3]-BN83250 (from 1 μM stock in 100% ethanol; 30 Ci/mmol) and various competitors (1% DMSO maximum vehicle concentration). Reactions were incubated for 2 hours on ice, then filtered through GF/C filters pre-soaked in 0.5% polyethyeneimine. Unbound material was washed away with 5×5 ml ice cold washing buffer (20 mM HEPES, 150 mM NaCl, pH 7.4) under a slow vacuum.
Competition for the specific [^3H]-BN83250 with compounds (I′), (II) and (V) was then determined at various concentrations from 1 μM to 10 μM. Compounds (III) and (IV) were not examined in these experiments.
Non-linear modelling was then applied to the competition binding curves for the various compounds, in order to compare their properties as agents binding to the target receptor (defined as the site of specific interaction of BN83250).

[2] = test system: MCP-1 induced THP-1 cell migration; experiment: ChemoTx transwell migration assay, MCP-1 induced migration of THP-1 cells; format: cell-based; conditions: Homo sapiens
Protocol: (§1) In principle, this assay consists of two chambers separated by a porous membrane. The chemoattractant is placed in the lower compartment and the cells are placed in the upper compartment. After incubation for a period at 37° C. the cells move towards the chemoattractant, and the number of cells in the lower compartment is proportional to the chemoattractant activity (relative to a series of controls).
(§2) The THP-1 cell line (European Cell Culture Collection) were used as the leukocyte cell population.
(§3) First, the cell suspension to be placed in the upper compartment is prepared. The THP-1 cells are pelleted by centrifugation (770×g; 4 mins) and washed with Geys Balanced Salt Solution with 1 mg/ml BSA (GBSS+BSA). This wash is then repeated, and the cells repelleted before being resuspended in a small volume of GBSS+BSA for counting, for example using a standard haemocytometer.
(§4) The volume of GBSS+BSA is then adjusted depending on the number of cells present so that the cells are at final density of 4.45×10^6 cells per ml of GBSS+BSA. This ensures that there are […] THP-1 cells in each 25 μl of the solution that will be placed in the upper chamber of the plate.
To test a single compound for its ability to inhibit chemokine induced migration, it is necessary to prepare two lots of cells. The suspension of THP-1 cells at 4.45×10^6 cells/ml is divided into two pots. To one pot the inhibitor under test is added at an appropriate final concentration, in an appropriate vehicle (for example at 1 μM in not more than 1% DMSO). To the second pot an equal volume of GBSS+BSA plus vehicle as appropriate (e.g. not more than 1% DMSO) is added to act as a control.
Next, the chemoattractant solution to be placed in the lower compartment is prepared. For example, MCP-1 is diluted in GBSS+BSA to give a final concentration of 25 ng/ml. This is divided into two pots, as for the cell suspension. To one pot, the test compound is added to the same final concentration as was added to the cell suspension, while to the other pot an equal volume of GBSS+BSA plus vehicle as appropriate (e,g. not more than 1% DMSO) is added. Alternatively, other chemokines may be used (SDF-1α at 7.5 ng/ml; RANTES at 50 ng/ml; IL-8 at 10 ng/ml using neutrophils as the target cell population). In each case it is important to determine (in a separate experiment) the concentration of each chemokine which causes maximal stimulation of migration of the chosen target leukocyte population. This maximal concentration must then be used in experiments to test the inhibitory activity of the compounds of the invention.
Once the chemoattractant solutions for the lower wells and cell solutions for the upper chambers have been prepared, the migration chamber should be assembled. Place 29 μl of the appropriate chemoattractant solution into the lower well of the chamber. Assays should be performed with at least triplicate determinations of each condition. Once all the lower chambers have been filled, apply the porous membrane to the chamber in accordance with the manufacturer's instructions. Finally, apply 25 μl of the appropriate cell solution to each upper chamber. A plastic lid is placed over the entire apparatus to prevent evaporation.
The assembled chamber is incubated at 37° C., 5% CO2, for 2 hours. A suspension of cells in GBSS+BSA is also incubated under identical conditions in a tube: these cells will be used to construct a standard curve for determining the number of cells that have migrated to the lower chamber under each condition.
At the end of the incubation, the liquid cell suspension is gently removed from the upper chamber, and 20 μl of ice-cold 20 mM EDTA in PBS is added to the upper chamber, and the apparatus is incubated at 4° C. for 15 mins. This procedure causes any cells adhering to the underside of the membrane to fall into the lower chamber.
After this incubation the filter is carefully flushed with GBSS+BSA to wash off the EDTA, and then the filter is removed. […]

[3] = test system: SDF-1α induced THP-1 cell migration; experiment: ChemoTx transwell migration assay, SDF-1α induced migration of THP-1 cells; format: cell-based; conditions: Homo sapiens, maximal dose of chemoattractant, read-out: ED50 SDF-1α
Protocol: as §1, §2, §3, §4
To test a single compound for its ability to inhibit chemokine induced migration, it is necessary to prepare two lots of cells. The suspension of THP-1 cells at 4.45×10^6 cells/ml is divided into two pots. […]

[4] = Pharmacokinetics following a single dose in dog (crossover iv / per os); format: in vivo; conditions: plasma; for Vd: read-out: Vss
Protocol: In a separate experiment, (I′) was compared with the second best compound (V) for pharmacokinetic parameters in a different (non-rodent) species, the dog. Single doses (1 mg/kg in 5% DMSO intravenously or 3 mg/kg in 1% CMC per os) were administered to a single dog for each compound in a simple crossover design with 1 week washout between the two routes of administration.

[5] = THP-1 cells, maximal dose of chemoattractant, read-out: ED50 MCP-1
[6] = THP-1 migration inhibition, Table 5, read-out: Functional ED50 versus MCP-1

Sequence of target receptor (site of specific interaction of BN83250) (Homo sapiens) (P30874 whole entry): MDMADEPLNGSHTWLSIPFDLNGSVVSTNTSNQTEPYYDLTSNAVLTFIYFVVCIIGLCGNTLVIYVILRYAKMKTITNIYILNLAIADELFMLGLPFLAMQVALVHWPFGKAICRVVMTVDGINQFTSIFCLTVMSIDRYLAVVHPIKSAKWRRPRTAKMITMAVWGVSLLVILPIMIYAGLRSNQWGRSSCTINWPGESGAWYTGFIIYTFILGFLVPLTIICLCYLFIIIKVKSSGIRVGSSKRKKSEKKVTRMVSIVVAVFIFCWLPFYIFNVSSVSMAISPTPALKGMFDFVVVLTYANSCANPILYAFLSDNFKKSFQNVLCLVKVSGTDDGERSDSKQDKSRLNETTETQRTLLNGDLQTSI

Row | Compound | Hill slope [1] | EC50 [2, 5] [pM] | EC50 [2, 6] [pM] | EC50 [3] [pM] | clearance ([4]; Intravenous PK (1 mg/kg)) [mL/min/kg] | half-life ([4]; Intravenous PK (1 mg/kg)) [h] | Vd ([4]; Intravenous PK (1 mg/kg)) [L/kg] | AUC ([4]; Oral PK (3 mg/kg)) [ng·h/mL] | Tmax ([4]; Oral PK (3 mg/kg)) [h] | bioavailability ([4]; Oral PK (3 mg/kg)) [%] | half-life ([4]; Oral PK (3 mg/kg)) [h]
1 | O=C1NCCCC[C@@H]1NC(=O)C12CC3CC(CC(C3)C1)C2 [(II), 3-(adamantane-1-carbonylamino)-caprolactam] | −0.5 | 80 | 80 | 100 |  |  |  |  |  |  | 
2 | CC(C)(C)S(=O)(=O)N[C@H]1CCCCNC1=O [(IV), 3-(1′,1′-dimethylethylsulfonylamino)-caprolactam] |  | 800 | 800 |  |  |  |  |  |  |  | 
3 | O=C1NCCCC[C@@H]1NC(=O)C12CC3CC(CC(O)(C3)C1)C2 [(V), 3-(3′-hydroxyadamantyl-1-carbonylamino)-caprolactam] | −0.5 |  |  | 200 | 7.4 | 1.1 | 0.6 | 4000 | 1 | 59 | 1.12
4 | CC(C)(C)C(=O)N[C@H]1CCCNC1=O [Compound (I′), 3-(2′,2′-dimethylpropanoylamino)-tetrahydropyridin-2-one] | −1.0 |  |  |  | 1.9 | 3.93 | 0.6 | 20200 | 1 | 75 | 3.62

From patent publication US7897620B2, “Methods of using anti-inflammatory compounds” (Cambridge Enterprise Limited, priority 2007, dated 2011)
